# Data as given in patent US8236824B2, “N-(pyrazole-3-yl)-benzamide derivatives as glucokinase activators” (Merck Patent Gesellschaft mit Beschränkter Haftung, priority 2007, dated 2012).
# Molecular target: T1, glucokinase (GK), human enzyme (Homo sapiens, UniProt P35557)
# T1 sequence (P35557 1-465): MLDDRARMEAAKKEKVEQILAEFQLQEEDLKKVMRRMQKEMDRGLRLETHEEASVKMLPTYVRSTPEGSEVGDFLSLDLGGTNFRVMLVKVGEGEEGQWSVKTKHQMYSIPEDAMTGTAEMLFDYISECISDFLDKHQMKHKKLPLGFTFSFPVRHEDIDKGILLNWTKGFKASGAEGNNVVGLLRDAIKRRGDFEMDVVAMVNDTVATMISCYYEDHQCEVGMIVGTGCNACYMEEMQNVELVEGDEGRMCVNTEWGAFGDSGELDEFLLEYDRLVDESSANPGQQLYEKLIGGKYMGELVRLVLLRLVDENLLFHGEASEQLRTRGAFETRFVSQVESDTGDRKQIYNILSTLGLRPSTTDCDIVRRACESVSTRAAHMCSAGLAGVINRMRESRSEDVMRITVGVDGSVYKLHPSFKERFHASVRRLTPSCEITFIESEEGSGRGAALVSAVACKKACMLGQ
# Experiment: Glucokinase Activation Screening Assay (coupled enzyme assay with PK/LDH, NADH decline at 340 nm)
# Assay type: biochemical
# Settings: 2 mM glucose
# Experimental: Glucokinase Activation Screening Assay
# GK activity (human or rat enzyme) is measured by an coupled enzyme assay using pyruvate kinase (PK) and lactate dehydrogenase (LDH) as coupling enzymes. GK activity is calculated from the decline in NADH monitored photometrically with a microliter plate (MTP) reader at 340 nm. For screening purposes, the GK assay is routinely run in a 384-MTP format, in a total volume of 33 μl/well. 10 μl of the ATP-regeneration solution (in HEPES-buffer*, pH 7.0, 6.73 U/ml pyruvate kinase, 6.8 U/ml lactate dehydrogenase) and 10 μl of the glucokinase-/glucose solution (15 μg/ml, 6.6 mM glucose in HEPES-buffer*, pH 7.0; the concentration of the glucose stock-solution was 660 mM in Millipore H2O) were mixed together with 3 μl of a 10% DMSO solution (in HEPES-buffer*, pH 7.0) containing […] the amounts of the compounds to achieve final compound concentrations in the range between 1 nM to 30 μM (sometimes 300 μM) in the assay solution (s. below). The solutions were mixed for 5 sec, and after a centrifugation at 243×g for 5 min, the solutions were preincubated for 25 min at room temperature.
# The reaction was started by the addition of 10 μl of the NADH-/ATP-solution (4.29 mM NADH, 4.95 mM ATP, in HEPES-buffer*). The MTP was shaken for 5 sec., and then, the absorbance at 340 nm was monitored continuously in a MTP-reader (TECAN Spectro fluor plus) for the next 27 min (with a MTP-cycling time of 199 sec.). The final concentrations of the various components were as follows: 49.5 mM Hepes, pH 7.0, 1.49 mM PEP, 1.3 mM NADH, 49.5 mM KCl, 4.96 mM MgCl2, 1.5 mM Mg-ATP, 1.98 mM DTT, 2.04 U/ml pyruvate kinase, 2.06 U/milactate-dehydrogenase, 0.91% DMSO, 0.15 μg/well glucokinase, and test compounds in the range between 1 nM and 300 μM.
# The change in the optical density (ΔOD340 nm) in the presence of the compound was expressed relative to the ΔOD340 nm, ctrl of the control incubation (in the presence of 2 mM glucose and 0.91% DMSO), taking into account the optical density of the blank sample (incubation in the absence of 2 mM glucose). For the determination of the half maximal effective concentration (EC50), the %-Ctrl-values were plotted in a semi-logarithmic graph against the conc. of the compound of interest. The data points were fitted to a sigmoid curve function (f(x)=((%-Ctrlmax-%-Ctrlmin)/(1−(EC50/x**^n(Hill)))%-Ctrlmin)) by a non-linear regression analysis. • Hepes-buffer (50 mM Hepes, pH 7.0, 5 mM MgCl2, 50 mM KCl, 1.5 mM PEP, 0.1% BSA). DTT was added to the Hepes-buffer from a 200× stock solution (in Millipore H2O) freshly each day. The final concentration of DTT in the Hepes-buffer is 2 mM. Culture of Pancreatic INS-1 Cells
row,SMILES,EC50
1,"CC(C)Oc1cc(OCc2ccccc2)cc(C(=O)Nc2ccn(Cc3ccccn3)n2)c1 [A1, 3-Benzyloxy-5-isopropoxy-N-(1-pyridine-2-ylmethyl-1H-pyrazol-3-yl)-benzamide]",1000 to 10000 nM
2,"Cc1cc(NC(=O)c2cc(OCc3ccccc3)cc(OC(C)C)c2)nn1Cc1ccccn1 [A2, 3-Benzyloxy-5-isopropoxy-N-(5-methyl-1-pyridine-2-ylmethyl-1H-pyrazole-3-yl)-benzamide]",1000 to 10000 nM
3,"CC(C)Oc1cc(OCc2ccccc2)cc(C(=O)Nc2ccn(Cc3ccccc3)n2)c1 [A3, 3-Benzyloxy-N-(1-benzyl-1H-pyrazol-3-yl)-5-isopropoxy-benzamide]",10 to 1000 nM
4,COC[C@H](C)Oc1cc(O[C@@H](C)Cc2ccccc2)cc(C(=O)Nc2ccn(Cc3ccccc3)n2)c1 [A4],10 to 1000 nM
5,"COC[C@H](C)Oc1cc(O[C@@H](C)Cc2ccccc2)cc(C(=O)Nc2ccn(Cc3ccccn3)n2)c1 [A5, 3-((S)-2-Methoxy-1-methyl-ethoxy)-5-((S)-1-methyl-2-phenyl-ethoxy)-N-(1-pyridine-2-ylmethyl-1H-pyrazole-3-yl)-benzamide]",10 to 1000 nM
6,"CC(C)Oc1cc(OCCc2ccsc2)cc(C(=O)Nc2ccn(Cc3ccccn3)n2)c1 [A6, 3-isopropoxy-N-(1-pyridine-2-ylmethyl-1H-pyrazole-3-yl)-5-(2-thiophene-3-yl-ethoxy)-benzamide]",10 to 1000 nM
7,"COC[C@H](C)Oc1cc(O[C@@H](C)Cc2ccccc2)cc(C(=O)Nc2ccn(Cc3cccnc3)n2)c1 [A7, 3-((S)-2-methoxy-1-methyl-ethoxy)-5-((S)-1-methyl-2-phenyl-ethoxy)-N-(1-pyridine-3-ylmethyl-1H-pyrazole-3-yl)-benzamide]",10 to 1000 nM
8,"COC[C@H](C)Oc1cc(O[C@@H](C)Cc2ccccc2)cc(C(=O)Nc2ccn(Cc3ccncc3)n2)c1 [A8, 3-((S)-2-methoxy-1-methyl-ethoxy)-5-((S)-1-methyl-2-phenyl-ethoxy)-N-(1-pyridine-4-ylmethyl-1H-pyrazole-3-yl)-benzamide]",10 to 1000 nM
9,"CC(C)Oc1cc(OCCc2ccsc2)cc(C(=O)Nc2ccn(Cc3ccccc3)n2)c1 [A9, N-(1-Benzyl-1H-pyrazol-3-yl)-3-isopropoxy-5-(2-thiophen-3-yl-ethoxy)-benzamide]",10 to 1000 nM
10,COC[C@H](C)Oc1cc(Oc2ccc(S(C)(=O)=O)cc2)cc(C(=O)Nc2ccn(Cc3cccnc3)n2)c1 [A10],10 to 1000 nM
